Reference: patent publication US20240398824A1, “Inhibition Of Rip Kinases For Treating Neurodegenerative Disorders” (The Johns Hopkins University, priority 2018, published 2024)

How the values were obtained:
[1] = test system: primary microglia activated with α-synuclein PFFs; experiment: qPCR of A1 astrocyte inducers (TNFα, IL-1α, C1q) in primary microglia activated with α-synuclein PFFs; type: cell-based, mouse; settings: inhibitor 10 μM 30 min, then α-synuclein PFFs 1 μg/mL 4 h; in words
Procedure: α-synuclein purification and α-synuclein PFFs preparation: Recombinant mouse α-synuclein proteins were purified as previously described with an IPTG-independent inducible pRK172 vector system (Nat Protoc. 9(9): 2135-46 (2014)). Endotoxin was depleted by ToxinEraser endotoxin removal kit (Genscript, NJ, USA). α-synuclein PFFs (5 mg ml^−1) was prepared in PBS while stirring with a magnetic stirrer (1,000 rpm at 37° C.). After a week of incubation of the α-synuclein protein, aggregates were diluted to 0.1 mg ml^−1 with PBS and sonicated for 30 s (0.5 s pulse on/off) at 10% amplitude (Branson Digital sonifier, Danbury, CT, USA). α-synuclein PFFs was validated using atomic force microscopy and transmission electron microscopy, and the ability to induce phospho-serine 129 α-synuclein (p-α-synSer129) was confirmed using immunostaining. α-synuclein PFFs was stored at −80° C. until use. […]
Comparative qPCR: The total RNA from cultured cells was extracted with RNA isolation kit (Qiagen, CA) following the instruction provided by the company. RNA concentration was measured spectrophotometrically using NanoDrop 2000 ([…]). […] The expression levels of targeted genes were normalized to the expression of β-actin and calculated based on the comparative cycle threshold Ct method (2-ΔΔCt).

primary astrocytes = experiment: A1 astrocyte conversion in primary astrocytes treated with PFF-activated microglia conditioned medium (MCM); type: cell-based, mouse; settings: astrocytes 24 h with MCM from inhibitor-treated PFF-activated microglia; in words
Procedure: Primary neuron, microglia and astrocyte cell cultures, and α-synuclein PFE's treatment: NOD2 or RIPK2 knockout mice was obtained from Jackson Laboratories (Bar Harbor, ME, USA). Primary cortical neurons were prepared from embryonic day 15.5 pups and cultured in Neurobasal medium (Gibco) supplemented with B-27, 0.5 mM L-glutamine, penicillin and streptomycin (Invitrogen, Grand Island, NY, USA) on tissue-culture plates coated with poly-L-lysine. The neurons were maintained by changing the medium every 3-4 days. Primary microglial and astrocyte cultures were performed as described previously (PMID: 26157004). Whole brains from mouse pups at postnatal day 1 (P1) were obtained. […] The total protein concentration was determined using Pierce BCA protein assay kit (Thermo Scientific), and 15 or 50 μg ml^-1 of total protein was added to mouse primary neurons for the neuronal cell death assay. […] RNA concentration was measured spectrophotometrically using NanoDrop 2000 ([…]). […] The expression levels of targeted genes were normalized to the expression of β-actin and calculated based on the comparative cycle threshold Ct method (2-ΔΔCt).

Row | Structure (SMILES) | release of A1 astrocyte inducer (TNFα, IL-1α, C1q) from microglia [1] | A1 astrocyte conversion (primary astrocytes)
1 | COc1cc2ncnc(Nc3ccc(F)c(Cl)c3)c2cc1OCCCN1CCOCC1 [Gefitinib] | significantly suppress | significantly suppress
2 | CC(C)(C)S(=O)(=O)c1ccc2nccc(Nc3n[nH]c4ccc(F)cc34)c2c1 [GSK583, 6-(tert-butylsulfonyl)-N-(5-fluoro-1H-indazol-3-yl) quinolin-4-amine] | significantly suppress | significantly suppress
